Source: patent US5262417A, “Antibacterial quinolone compounds” (The Upjohn Company, priority 1991, dated 1993)
Like-named read-outs stand apart in the source and are kept apart here.

Experiments:
Experiment in all cases: Minimum inhibitory concentration (MIC) by agar dilution
Type in all cases: cell-based
[1] = tested on: Acinetobacter calcoaceticus; settings: Acinetobacter calcoaceticus, UC12170, 20 h, read-out: Minimum Inhibitory Concentration, A. calcoaceticus UC 12170, Table CI
Procedure: (§1) The antibacterial activity of the compounds of Formula IC was determined by using standard testing procedures such as the determination of minimum inhibitory concentration (MIC) by agar dilution as described in "Methods for Dilution Antimicrobial Susceptibility Tests for Bacteria That Grow Aerobically" (MFT) published January 1983 by the National Committee for Clinical Laboratory Standards, 771 East Lancaster Avenue, Villanova, Pa. 19084, USA. Briefly, MIC values are determined in unsupplemented Mueller Hinton Agar (MHA). The compounds tested are diluted serially into molten MHA at 47° C. The agar is poured into petri dishes and allowed to harden. The various bacteria used for testing are grown overnight on MHA at 35° C. and transferred to Trypticase soy broth (TSB) until a turbidity of 0.5 McFarland standard is obtained. The bacteria are diluted one to 20 in TSB and inoculated on the plates (1 μl using a Steers replicator).
as §1, with “Compounds of this invention can also be tested for in vitro antimicrobial” for “The antibacterial”, “activity” for “activity of the compounds of Formula IC was determined by”, “Jan.” for “January”, “Penna.” for “Pa.”, “(1μl” for “(1 μl”, “replicator). […] The MIC test results of selected of Formula B compounds of this invention are found in Tables B2-B9.” for “replicator).”

[2] = tested on: Proteus penneri; settings: Proteus penneri, UC9679, 20 h, read-out: Minimum Inhibitory Concentration, P. penneri UC 9679, Table CI
Procedure: as §1
as §1, with “Compounds of this invention can also be tested for in vitro antimicrobial” for “The antibacterial”, “activity” for “activity of the compounds of Formula IC was determined by”, “Jan.” for “January”, “Penna.” for “Pa.”, “(1μl” for “(1 μl”, “replicator). […] The MIC test results of selected of Formula B compounds of this invention are found in Tables B2-B9.” for “replicator).”

[3] = tested on: Serratia marcescens; settings: 20 h, read-out: MINIMUM INHIBITORY CONCENTRATION
Procedure: as §1
as §1, with “Compounds of this invention can also be tested for in vitro antimicrobial” for “The antibacterial”, “activity” for “activity of the compounds of Formula IC was determined by”, “Jan.” for “January”, “Penna.” for “Pa.”, “(1μl” for “(1 μl”, “replicator). […] The MIC test results of selected of Formula B compounds of this invention are found in Tables B2-B9.” for “replicator).”

[4] = tested on: Staphylococcus epidermidis; settings: 20 h, read-out: Minimum Inhibitory Concentration
Procedure: as §1
as §1, with “Compounds of this invention can also be tested for in vitro antimicrobial” for “The antibacterial”, “activity” for “activity of the compounds of Formula IC was determined by”, “Jan.” for “January”, “Penna.” for “Pa.”, “(1μl” for “(1 μl”, “replicator). […] The MIC test results of selected of Formula B compounds of this invention are found in Tables B2-B9.” for “replicator).”

[5] = tested on: Streptococcus pneumoniae; settings: Streptococcus pneumoniae, UC41, 20 h, read-out: Minimum Inhibitory Concentration, S. pneumoniae UC 41, Table CI
Procedure: as §1
as §1, with “Compounds of this invention can also be tested for in vitro antimicrobial” for “The antibacterial”, “activity” for “activity of the compounds of Formula IC was determined by”, “Jan.” for “January”, “Penna.” for “Pa.”, “(1μl” for “(1 μl”, “replicator). […] The MIC test results of selected of Formula B compounds of this invention are found in Tables B2-B9.” for “replicator).”

[6] = tested on: Citerobacter freundii; settings: Citrobacter freundii, UC3507, 20 h, read-out: Minimum Inhibitory Concentration
Procedure: as §1
as §1, with “Compounds of this invention can also be tested for in vitro antimicrobial” for “The antibacterial”, “activity” for “activity of the compounds of Formula IC was determined by”, “Jan.” for “January”, “Penna.” for “Pa.”, “(1μl” for “(1 μl”, “replicator). […] The MIC test results of selected of Formula B compounds of this invention are found in Tables B2-B9.” for “replicator).”

[7] = tested on: Escherichia coli; settings: Escherichia coli
Procedure: as §1
as §1, with “Compounds of this invention can also be tested for in vitro antimicrobial” for “The antibacterial”, “activity” for “activity of the compounds of Formula IC was determined by”, “Jan.” for “January”, “Penna.” for “Pa.”, “(1μl” for “(1 μl”, “replicator). […] The MIC test results of selected of Formula B compounds of this invention are found in Tables B2-B9.” for “replicator).”

[8] = tested on: Streptococcus pyogenes; settings: Streptococcus pyogenes, UC152, 20 h, read-out: Minimum Inhibitory Concentration, S. pyogenes UC 152, Table CI
Procedure: as §1
as §1, with “Compounds of this invention can also be tested for in vitro antimicrobial” for “The antibacterial”, “activity” for “activity of the compounds of Formula IC was determined by”, “Jan.” for “January”, “Penna.” for “Pa.”, “(1μl” for “(1 μl”, “replicator). […] The MIC test results of selected of Formula B compounds of this invention are found in Tables B2-B9.” for “replicator).”

[9] = tested on: Staphylococcus aureus; settings: Staphylococcus aureus
Procedure: as §1
as §1, with “Compounds of this invention can also be tested for in vitro antimicrobial” for “The antibacterial”, “activity” for “activity of the compounds of Formula IC was determined by”, “Jan.” for “January”, “Penna.” for “Pa.”, “(1μl” for “(1 μl”, “replicator). […] The MIC test results of selected of Formula B compounds of this invention are found in Tables B2-B9.” for “replicator).”

[10] = tested on: Klebsiella pneumoniae; settings: UC12081, 20 h, read-out: Minimum Inhibitory Concentration
Procedure: as §1
as §1, with “Compounds of this invention can also be tested for in vitro antimicrobial” for “The antibacterial”, “activity” for “activity of the compounds of Formula IC was determined by”, “Jan.” for “January”, “Penna.” for “Pa.”, “(1μl” for “(1 μl”, “replicator). […] The MIC test results of selected of Formula B compounds of this invention are found in Tables B2-B9.” for “replicator).”

[11] = tested on: Pseudomonas aeruginosa; settings: Pseudomonas aeruginosa
Procedure: as §1
as §1, with “Compounds of this invention can also be tested for in vitro antimicrobial” for “The antibacterial”, “activity” for “activity of the compounds of Formula IC was determined by”, “Jan.” for “January”, “Penna.” for “Pa.”, “(1μl” for “(1 μl”, “replicator). […] The MIC test results of selected of Formula B compounds of this invention are found in Tables B2-B9.” for “replicator).”

[12] = tested on: Streptococcus faecalis; settings: Enterococcus faecalis, UC9217, 20 h, read-out: Minimum Inhibitory Concentration
Procedure: as §1
as §1, with “Compounds of this invention can also be tested for in vitro antimicrobial” for “The antibacterial”, “activity” for “activity of the compounds of Formula IC was determined by”, “Jan.” for “January”, “Penna.” for “Pa.”, “(1μl” for “(1 μl”, “replicator). […] The MIC test results of selected of Formula B compounds of this invention are found in Tables B2-B9.” for “replicator).”

[13] = tested on: Enterobacter cloacae; settings: UC9382, 20 h, read-out: Minimum Inhibitory Concentration
Procedure: Briefly, MIC values are determined in unsupplemented Mueller Hinton Agar (MHA). The compounds tested are diluted serially into molten MHA at 47° C. The agar is poured into petri dishes and allowed to harden. The various bacteria used for testing are grown overnight on MHA at 35° C. and transferred to Trypticase soy broth (TSB) until a turbidity of 0.5 McFarland standard is obtained. The bacteria are diluted one to 20 in TSB and inoculated on the plates (1 μl using a Steers replicator).
as §1, with “Compounds of this invention can also be tested for in vitro antimicrobial” for “The antibacterial”, “activity” for “activity of the compounds of Formula IC was determined by”, “Jan. […]” for “January 1983 by the National Committee for Clinical Laboratory Standards, 771 East Lancaster Avenue, Villanova, Pa. 19084, USA.”, “(1μl” for “(1 μl”

C#CCn1cc(C(=O)O)c(=O)c2cc(F)c(N3CCNCC3)c(F)c21.CS(=O)(=O)O [C, (+,-)-6,8-difluoro-1,4-dihydro-4-oxo-7-(1-piperazinyl)-1-(2-propynyl)-3-quinolinecarboxylic acid methanesulfonate]
MIC [1]: 8 µg/mL | MIC [2]: 1 µg/mL | MIC [3]: 0.25 µg/mL | MIC [4]: 16 µg/mL | MIC [5]: > 64 µg/mL | MIC [6]: 1 µg/mL | MIC ([7]; UC6674, 20 h, read-out: Minimum Inhibitory Concentration, E. coli UC 6674, Table CI): 1 µg/mL | MIC ([7]; UC9451, 20 h, read-out: Minimum Inhibitory Concentration, E. coli UC 9451, Table CI): 2 µg/mL | MIC ([7]; UC9855, 20 h, read-out: Minimum Inhibitory Concentration, E. coli UC 9855, Table CI): 2 µg/mL | MIC ([7]; UC9952, 20 h, read-out: Minimum Inhibitory Concentration, E. coli UC 9952, Table CI): 1 µg/mL | MIC [8]: 32 µg/mL | MIC ([9]; UC6685, 20 h, read-out: Minimum Inhibitory Concentration, S. aureus UC 6685, Table CI): 32 µg/mL | MIC ([9]; UC9213, 20 h, read-out: Minimum Inhibitory Concentration, S. aureus UC 9213, Table CI): 32 µg/mL | MIC ([9]; UC9218, 20 h, read-out: Minimum Inhibitory Concentration, S. aureus UC 9218, Table CI): 32 µg/mL | MIC ([9]; UC9271, 20 h, read-out: Minimum Inhibitory Concentration, S. aureus UC 9271, Table CI): 32 µg/mL | MIC [10]: 2 µg/mL | MIC ([11]; UC6676, 20 h, read-out: Minimum Inhibitory Concentration, Ps. aeruginosa UC 6676, Table CI): 16 µg/mL | MIC ([11]; UC9191, 20 h, read-out: Minimum Inhibitory Concentration, Ps. aeruginosa UC 9191, Table CI): 8 µg/mL | MIC ([11]; UC12120, 20 h, read-out: Minimum Inhibitory Concentration, Ps. aeruginosa UC 12120, Table CI): 8 µg/mL | MIC [12]: > 64 µg/mL | MIC [13]: 1 µg/mL
